Source: US12604903B2 (priority 2019, dated 2026)
Read-outs that look alike come from different tables or passages of the source. Residues, ends and D or L forms follow the SMILES beside them.

B1: TKPCQSDKDCKKFACRKPKVPKCINGFCKCVRAPKKVEPTKPCQSDKDCKKFACRKPKVPKCINGFCKCVR (protein)
chain: TKPCQSDKDCKKFACRKPKVPKCINGFCKCVRAPKKVEPTKPCQSDKDCKKFACRKPKVPKCINGFCKCVR
notes: two NCR13 monomers linked in tandem by the APKKVEP spacer peptide from MtDef5 defensin, 71 amino acids

How the values were obtained:
Fusarium oxysporum = type: cell-based

Molecule | Fusarium graminearum MIC (Fusarium graminearum) | IC50 (Fusarium graminearum) | Alternaria brassicicola MIC (Alternaria brassicicola) | IC50 (Alternaria brassicicola) | Botrytis cinerea MIC (Botrytis cinerea) | IC50 (Botrytis cinerea) | IC50 (Phytophthora capsici) | Phytophthora capsici MIC (Phytophthora capsici) | Fusarium oxysporum MIC (Fusarium oxysporum) | IC50 (Fusarium oxysporum) | other results
CSCC[C@H](NC(=O)[C@H](CCCCN)NC(=O)[C@@H](N)CCCCN)C(=O)N1CCC[C@H]1C(=O)N[C@@H](CS)C(=O)N[C@@H](CCCCN)C(=O)N[C@@H](CCCNC(=N)N)C(=O)N[C@@H](CCCNC(=N)N)C(=O)N[C@@H](CCCNC(=N)N)C(=O)N[C@@H](CC(=O)O)C(=O)N[C@@H](CS)C(=O)N[C@@H](CCCCN)C(=O)N[C@H](C(=O)N[C@@H](Cc1ccc(O)cc1)C(=O)N1CCC[C@H]1C(=O)N[C@@H](CS)C(=O)N1CCC[C@H]1C(=O)N[C@@H](Cc1c[nH]cn1)C(=O)N1CCC[C@H]1C(=O)N[C@@H](CCCCN)C(=O)N[C@H](C(=O)N[C@@H](CCCNC(=N)N)C(=O)N[C@@H](CC(=O)O)C(=O)N[C@@H](CS)C(=O)N[C@H](C(=O)N[C@@H](CCCCN)C(=O)NCC(=O)N[C@@H](Cc1ccc(O)cc1)C(=O)N[C@@H](CS)C(=O)N[C@@H](CCCCN)C(=O)N[C@@H](CS)C(=O)N[C@H](C(=O)N[C@H](C(=O)N[C@@H](CCCNC(=N)N)C(=O)O)C(C)C)C(C)C)C(C)C)C(C)C)[C@@H](C)O [NCR7-S] (H-KKMPCKRRRDCKTYPCPHPKVRDCVKGYCKCVVR-OH; N-terminus and C-terminus assumed) | 6 µM | 4 µM | 6 µM | 4 µM | 6 µM | 3 µM | > 6 µM | >6 µM | – | – | –
CC[C@H](C)[C@H](NC(=O)[C@H](CS)NC(=O)[C@H](CCCCN)NC(=O)[C@@H]1CCCN1C(=O)[C@@H](NC(=O)[C@H](CCCCN)NC(=O)[C@@H]1CCCN1C(=O)[C@H](CCCCN)NC(=O)[C@H](CCCNC(=N)N)NC(=O)[C@H](CS)NC(=O)[C@H](C)NC(=O)[C@H](Cc1ccccc1)NC(=O)[C@H](CCCCN)NC(=O)[C@H](CCCCN)NC(=O)[C@H](CS)NC(=O)[C@H](CC(=O)O)NC(=O)[C@H](CCCCN)NC(=O)[C@H](CC(=O)O)NC(=O)[C@H](CO)NC(=O)[C@H](CCC(N)=O)NC(=O)[C@H](CS)NC(=O)[C@@H]1CCCN1C(=O)[C@H](CCCCN)NC(=O)[C@@H](N)[C@@H](C)O)C(C)C)C(=O)N[C@@H](CC(N)=O)C(=O)NCC(=O)N[C@@H](Cc1ccccc1)C(=O)N[C@@H](CS)C(=O)N[C@@H](CCCCN)C(=O)N[C@@H](CS)C(=O)N[C@H](C(=O)N[C@@H](CCCNC(=N)N)C(=O)O)C(C)C [NCR13-S] (H-TKPCQSDKDCKKFACRKPKVPKCINGFCKCVR-OH) | 6 µM | 4 µM | 6 µM | 4 µM | 3 µM | 1.5 µM | > 6 µM | >6 µM | – | – | –
CC(C)[C@H](NC(=O)[C@H](CS)NC(=O)[C@H](CCCCN)NC(=O)[C@H](CS)NC(=O)[C@H](Cc1ccccc1)NC(=O)CNC(=O)[C@H](CC(N)=O)NC(=O)[C@@H](NC(=O)[C@H](CS)NC(=O)[C@H](CC(N)=O)NC(=O)[C@@H]1CCCN1C(=O)[C@@H](NC(=O)[C@H](CCCCN)NC(=O)[C@@H]1CCCN1C(=O)[C@@H](NC(=O)[C@@H]1CCCN1C(=O)[C@H](CS)NC(=O)[C@H](CCCNC(=N)N)NC(=O)[C@H](Cc1ccc(O)cc1)NC(=O)[C@@H](NC(=O)[C@H](CCCCN)NC(=O)[C@H](CS)NC(=O)[C@H](Cc1c[nH]cn1)NC(=O)[C@H](CCCCN)NC(=O)[C@H](CCCNC(=N)N)NC(=O)[C@H](CO)NC(=O)[C@H](CCCCN)NC(=O)[C@H](CS)NC(=O)[C@@H]1CCCN1C(=O)[C@H](CCC(N)=O)NC(=O)[C@H](CCCCN)NC(=O)[C@@H](N)[C@@H](C)O)[C@@H](C)O)[C@@H](C)O)C(C)C)C(C)C)C(=O)N[C@@H](CCCNC(=N)N)C(=O)O [NCR15-S] (H-TKQPCKSRKHCKTYRCPTPKVPNCVNGFCKCVR-OH; N-terminus and C-terminus assumed) | 6 µM | 4 µM | 6 µM | 3 µM | 6 µM | 3 µM | > 6 µM | >6 µM | – | – | –
TKPCQSDKDCKKFACRKPKVPKCINGFCKCVR (listed as Cicer arietinum) [NCR13-P] | 3 µM | – | 4 µM | – | 3 µM | – | – | >6 µM | 2 to 3 µM | 1 µM | IC50 (Fusarium graminearum; read-out: Fusarium graminearum IC50): 2 µM; IC50 (Alternaria brassicicola; read-out: Alternaria brassicicola IC50): 2 µM; IC50 (Botrytis cinerea; read-out: Botrytis cinerea IC50): 1 µM; growth inhibition of P. capsici (in words) (Phytophthora capsici): inactive; IC50 (Phytophthora capsici; read-out: Phytophthora capsici IC50): > 6 µM
B1 | – | – | – | – | – | – | – | – | 0.3 µM | 0.1 µM | Fusarium graminearum MIC (Fusarium graminearum; in vitro growth inhibition): 1.5 µM; IC50 (Fusarium graminearum; read-out: Fusarium graminearum IC50, in vitro growth inhibition): 1 µM; antifungal activity against F. oxysporum (in words) (Fusarium oxysporum): significantly more active; antifungal activity against B. cinerea (in words) (Botrytis cinerea): significantly more active; Botrytis cinerea MIC (Botrytis cinerea; in vitro growth inhibition): 1.5 µM; IC50 (Botrytis cinerea; read-out: Botrytis cinerea IC50, in vitro growth inhibition): 0.75 µM
